Values quoted from earlier work, collected in paper PMC7914897, “Cytotoxic Potential of a-Azepano- and 3-Amino-3,4-SeCo-Triterpenoids” (International Journal of Molecular Sciences, 2021).

Tests used:
Set-up in all cases: method as in earlier work
[1] = tested on: CAKI-1 (Renal cancer); details: cited from earlier work
[2] = tested on: MDA-MB-31/ATCC (Breast cancer); details: cited from earlier work
[3] = tested on: OVCAR-3 (Ovarian cancer); details: cited from earlier work
[4] = tested on: RPMI-8226 (Leukemia); details: cited from earlier work
[5] = tested on: MALME-3M (Melanoma); details: cited from earlier work
[6] = tested on: MDA-MB-435 (Melanoma); details: cited from earlier work
[7] = tested on: NCI-H460 (NSC lung cancer); details: cited from earlier work
[8] = tested on: SF-539 (CNS cancer); details: cited from earlier work
[9] = tested on: HOP-62 (NSC lung cancer); details: cited from earlier work
[10] = tested on: SNB-75 (CNS cancer); details: cited from earlier work
[11] = tested on: HOP-92 (NSC lung cancer); details: cited from earlier work
[12] = tested on: NCI-H522 (NSC lung cancer); details: cited from earlier work
[13] = tested on: NCI-H226 (NSC lung cancer); details: cited from earlier work
[14] = tested on: panel of approximately 60 cancer cell lines; details: standard drugs; read-out: GI50 MG_MID60; cited from earlier work
[15] = tested on: MCF7 (Breast cancer); details: cited from earlier work
[16] = tested on: HCC-2998 (Colon cancer); details: cited from earlier work
[17] = tested on: NCI-H23 (NSC lung cancer); details: cited from earlier work
[18] = tested on: U251 (CNS cancer); details: cited from earlier work
[19] = tested on: CCRF-CEM (Leukemia); details: cited from earlier work
[20] = tested on: A549/ATCC (NSC lung cancer); details: cited from earlier work
[21] = tested on: RXF 393 (Renal cancer); details: cited from earlier work
[22] = tested on: EKVX (NSC lung cancer); details: cited from earlier work
[23] = tested on: LOX IMVI (Melanoma); details: cited from earlier work
[24] = tested on: SF-268 (CNS cancer); details: cited from earlier work
[25] = tested on: MDA-MB-468 (Breast cancer); details: cited from earlier work
[26] = tested on: SR (Leukemia); details: cited from earlier work
[27] = tested on: ACHN (Renal cancer); details: cited from earlier work
[28] = tested on: OVCAR-8 (Ovarian cancer); details: cited from earlier work
[29] = tested on: Leukemia subpanel; details: standard drugs, read-out: GI50 MG_MID; cited from earlier work
[30] = tested on: SNB-19 (CNS cancer); details: cited from earlier work
[31] = tested on: HCT-116 (Colon cancer); details: cited from earlier work
[32] = tested on: CNS cancer subpanel; details: standard drugs, read-out: GI50 MG_MID; cited from earlier work
[33] = tested on: SK-MEL-5 (Melanoma); details: cited from earlier work
[34] = tested on: MOLT-4 (Leukemia); details: cited from earlier work
[35] = tested on: SW-620 (Colon cancer); details: cited from earlier work
[36] = tested on: SF-295 (CNS cancer); details: cited from earlier work
[37] = tested on: SN12C (Renal cancer); details: cited from earlier work
[38] = tested on: A498 (Renal cancer); details: cited from earlier work
[39] = tested on: T-47D (Breast cancer); details: cited from earlier work

## O=c1[nH]cc(F)c(=O)[nH]1 [Compound 5-FU, 5-fluorouracil]
[1]
  GI50: 70 nM
[2]
  GI50: 6600 nM
[3]
  GI50: 10 nM
[4]
  GI50: 40 nM
[5]
  GI50: 50 nM
[6]
  GI50: 70 nM
[7]
  GI50: 50 nM
[8]
  GI50: 60 nM
[9]
  GI50: 390 nM
[10]
  GI50: 78700 nM
[11]
  GI50: 77900 nM
[12]
  GI50: 7270 nM
[13]
  GI50: 54700 nM
[14]
  GI50: 6970 nM
[15]
  GI50: 70 nM
[16]
  GI50: 50 nM
[17]
  GI50: 330 nM

## COc1cccc2c1C(=O)c1c(O)c3c(c(O)c1C2=O)C[C@@](O)(C(=O)CO)C[C@@H]3O[C@H]1C[C@H](N)[C@H](O)[C@H](C)O1 [DRB, doxorubicin]
[18]
  GI50: 40 nM
[19]
  GI50: 80 nM
[2]
  GI50: 510 nM
[20]
  GI50: 60 nM
[21]
  GI50: 100 nM
[22]
  GI50: 410 nM
[23]
  GI50: 70 nM
[24]
  GI50: 100 nM
[4]
  GI50: 80 nM
[7]
  GI50: 20 nM
[25]
  GI50: 50 nM
[26]
  GI50: 30 nM
[27]
  GI50: 80 nM
[28]
  GI50: 100 nM
[29]
  GI50: 80 nM
[30]
  GI50: 40 nM
[31]
  GI50: 80 nM
[9]
  GI50: 70 nM
[10]
  GI50: 70 nM
[32]
  GI50: 80 nM
[11]
  GI50: 100 nM
[33]
  GI50: 80 nM
[34]
  GI50: 30 nM
[12]
  GI50: 30 nM
[13]
  GI50: 50 nM
[35]
  GI50: 90 nM
[36]
  GI50: 100 nM
[37]
  GI50: 70 nM
[14]
  GI50: 380 nM
[15]
  GI50: 30 nM
[38]
  GI50: 100 nM
[17]
  GI50: 150 nM
[39]
  GI50: 60 nM
